# Data reported in ChEMBL document CHEMBL1150124, “Steroidal and pregnane glycosides from the rhizomes of Tacca chantrieri” (J Nat Prod, 2002).
# Active and inactive are the calls of the source. No cut-off for these calls is given here.
# Test system: HL-60
# Assay: Cytotoxicity against human HL60 cells at 10 ug/mL
# Format: functional, cell-based
row,Compound,Activity
1,CC(=O)OC[C@H]1O[C@@H](O[C@H]2CC[C@@]3(C)C(=CC[C@H]4[C@@H]5C[C@@H]6OC(CC[C@H](C)CO[C@@H]7O[C@H](CO)[C@@H](O)[C@H](O)[C@H]7O)=C(C)[C@@H]6[C@@]5(C)CC[C@@H]43)C2)[C@H](O[C@@H]2O[C@@H](C)[C@H](O)[C@@H](O)[C@H]2O)[C@@H](O[C@@H]2O[C@@H](C)[C@H](O[C@@H]3O[C@H](CO)[C@@H](O)[C@H](O)[C@H]3O)[C@@H](O)[C@H]2O)[C@@H]1O,inactive
2,CC(=O)C1=CC[C@H]2[C@@H]3CC=C4C[C@@H](O[C@@H]5O[C@H](CO)[C@@H](O)[C@H](O[C@@H]6O[C@@H](C)[C@H](O[C@@H]7O[C@H](CO)[C@@H](O)[C@H](O)[C@H]7O)[C@@H](O)[C@H]6O)[C@H]5O[C@@H]5O[C@@H](C)[C@H](O)[C@@H](O)[C@H]5O)CC[C@]4(C)[C@H]3CC[C@]12C,inactive
3,CC1=C(CC[C@H](C)CO[C@@H]2O[C@H](CO)[C@@H](O)[C@H](O)[C@H]2O)O[C@H]2C[C@H]3[C@@H]4CC=C5C[C@@H](O[C@@H]6O[C@H](CO)[C@@H](O)[C@H](O[C@@H]7O[C@@H](C)[C@H](O[C@@H]8O[C@H](CO)[C@@H](O)[C@H](O)[C@H]8O)[C@@H](O)[C@H]7O)[C@H]6O[C@@H]6O[C@@H](C)[C@H](O)[C@@H](O)[C@H]6O)CC[C@]5(C)[C@H]4CC[C@]3(C)[C@@H]12,inactive
4,CO[C@]1(CC[C@H](C)CO[C@@H]2O[C@H](CO)[C@@H](O)[C@H](O)[C@H]2O)O[C@H]2C[C@H]3[C@@H]4CC=C5C[C@@H](O[C@@H]6O[C@H](CO)[C@@H](O)[C@H](O[C@@H]7O[C@@H](C)[C@H](O[C@@H]8O[C@H](CO)[C@@H](O)[C@H](O)[C@H]8O)[C@@H](O)[C@H]7O)[C@H]6O[C@@H]6O[C@@H](C)[C@H](O)[C@@H](O)[C@H]6O)CC[C@]5(C)[C@H]4CC[C@]3(C)[C@H]2[C@@H]1C,inactive
5,CC(=O)[C@H]1[C@@H](OC(=O)CC[C@H](C)CO[C@@H]2O[C@H](CO)[C@@H](O)[C@H](O)[C@H]2O)C[C@H]2[C@@H]3CC=C4C[C@@H](O[C@@H]5O[C@H](CO)[C@@H](O)[C@H](O[C@@H]6O[C@@H](C)[C@H](O[C@@H]7O[C@H](CO)[C@@H](O)[C@H](O)[C@H]7O)[C@@H](O)[C@H]6O)[C@H]5O[C@@H]5O[C@@H](C)[C@H](O)[C@@H](O)[C@H]5O)CC[C@]4(C)[C@H]3CC[C@@]21C,inactive
6,CO[C@]1(CC[C@H](C)CO[C@@H]2O[C@H](CO)[C@@H](O)[C@H](O)[C@H]2O)O[C@H]2C[C@H]3[C@@H]4CC=C5C[C@@H](O[C@@H]6O[C@H](COC(C)=O)[C@@H](O)[C@H](O[C@@H]7O[C@@H](C)[C@H](O[C@@H]8O[C@H](CO)[C@@H](O)[C@H](O)[C@H]8O)[C@@H](O)[C@H]7O)[C@H]6O[C@@H]6O[C@@H](C)[C@H](O)[C@@H](O)[C@H]6O)CC[C@]5(C)[C@H]4CC[C@]3(C)[C@H]2[C@@H]1C,inactive
7,CO[C@]1(CC[C@H](C)CO[C@@H]2O[C@H](CO[C@@H]3O[C@H](CO)[C@@H](O)[C@H](O)[C@H]3O)[C@@H](O)[C@H](O)[C@H]2O)O[C@H]2C[C@H]3[C@@H]4CC=C5C[C@@H](O[C@@H]6O[C@H](CO)[C@@H](O)[C@H](O[C@@H]7O[C@@H](C)[C@H](O[C@@H]8O[C@H](CO)[C@@H](O)[C@H](O)[C@H]8O)[C@@H](O)[C@H]7O)[C@H]6O[C@@H]6O[C@@H](C)[C@H](O)[C@@H](O)[C@H]6O)CC[C@]5(C)[C@H]4CC[C@]3(C)[C@H]2[C@@H]1C,inactive
